The values that follow come from patent publication US20240307525A1 (priority 2020, published 2024).

pEC50: −log10 of the molar value.

The term pEC50 denotes the EC50 on a negative log10 scale, so that one unit is a factor of ten. High values mean a small EC50, low ones a large EC50.

What all share (test): microbe, parasite or virus in culture
What all share (type): cell-based, SARS-COV-2

Test [1] concerns rSARS-COV-2-Venus. The conditions noted are these: Severe acute respiratory syndrome coronavirus 2, Vero C1008.
The test system of test [2] is rSARS-COV-2-mCherry. The conditions noted are these: Severe acute respiratory syndrome coronavirus 2, Vero C1008.
For test [3], the system named is rSARS-COV-2-Nluc. The conditions noted are these: Severe acute respiratory syndrome coronavirus 2, Vero C1008, 48 h.
The test system of test [4] is rSARS-COV-2/WT. As to conditions: Severe acute respiratory syndrome coronavirus 2, Vero C1008.

For the compound `CCC(CC)COC(=O)[C@H](C)N[P@](=O)(OC[C@H]1O[C@@](C#N)(c2ccc3c(N)ncnn23)[C@H](O)[C@@H]1O)Oc1ccccc1` [Remdesivir], the pEC50 was 5.97 in test [1], 5.75 in test [2], 5.75 in test [3] and 5.82 in test [4].
